From ChEMBL document CHEMBL1914340, “Effect of the leukotriene A4 hydrolase aminopeptidase augmentor 4-methoxydiphenylmethane in a pre-clinical model of pulmonary emphysema” (Bioorg Med Chem Lett, 2011) come the findings set out here.

Activity calls are given as the source filed them. No cut-off for these calls is given here.

Data set [1] in a line: Chemical stability of the compound assessed as degradation at pH 6.8. Type of data set: physicochemical. The conditions noted are these: buffer.
A short description of data set [2]: Toxicity in mouse. It counts as organism-based. The conditions noted are these: in vivo.
Data set [3] concerns Mus musculus. In words: Antiemphysema activity in wild type mouse assessed as shorter chord length at 30 mg/kg, ip qd for 28 days measured after 18 hrs of post mortem by volume displacement technique relative to vehicle-treated control. It counts as functional, organism-based. More on the design: dose 30 mg/kg.
The target in data set [4] is T1, Leukotriene A-4 hydrolase (Homo sapiens) (UniProt P09960).
T1 sequence (whole entry): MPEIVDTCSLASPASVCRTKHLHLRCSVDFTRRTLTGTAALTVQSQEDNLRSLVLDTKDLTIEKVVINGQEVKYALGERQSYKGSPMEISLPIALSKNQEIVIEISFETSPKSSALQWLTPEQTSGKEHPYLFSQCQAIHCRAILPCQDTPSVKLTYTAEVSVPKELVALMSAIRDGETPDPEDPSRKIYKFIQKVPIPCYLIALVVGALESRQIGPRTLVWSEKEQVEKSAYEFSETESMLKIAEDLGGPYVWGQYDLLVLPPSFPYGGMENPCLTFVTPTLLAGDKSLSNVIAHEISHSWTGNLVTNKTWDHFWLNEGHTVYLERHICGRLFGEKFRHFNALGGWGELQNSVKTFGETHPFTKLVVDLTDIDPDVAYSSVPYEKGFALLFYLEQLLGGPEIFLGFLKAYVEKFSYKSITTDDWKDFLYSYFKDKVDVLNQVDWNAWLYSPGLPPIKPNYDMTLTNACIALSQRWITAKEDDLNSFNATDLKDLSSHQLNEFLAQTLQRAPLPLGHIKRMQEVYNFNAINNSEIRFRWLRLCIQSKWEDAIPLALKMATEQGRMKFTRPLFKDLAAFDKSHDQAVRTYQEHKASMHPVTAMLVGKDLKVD
In words: Activation of aminopeptidase activity of LTA4H assessed as compound concentration required to 50% activation using L-alanine-p-nitroanilide as substrate by spectrophotometry.

Data set [5] deals with Mus musculus. In words: Antiemphysema activity in wild type mouse assessed as reduction in intranasal elastase-induced lung volume at 30 mg/kg, ip qd for 28 days measured after 18 hrs of post mortem by volume displacement technique relative to vehicle-treated control. It counts as functional, organism-based. Set-up: dose 30 mg/kg.
For data set [6], the system named is Mus musculus. In words: Antiemphysema activity in wild type mouse assessed as reduction in intranasal elastase-induced lung compliance at 30 mg/kg, ip qd for 28 days by flexivent relative to vehicle-treated control. It counts as functional, organism-based. More on the design: dose 30 mg/kg.
The subject of data set [7] is Mus musculus. In words: Effect on intransal elastase-induced LTB4 level in broncho alveolar lavage fluid in ip dosed mouse by ELISA (reference value: 93.1 +/- 26.1 pg/mL). It counts as functional, organism-based. A general note: ELISA stands for enzyme-linked immunosorbent assay.

Take `COc1ccc(Oc2ccccc2)cc1`: the Stability entry in data set [1] was “Unstable”. The molecule also registered an MTD in data set [2] of 30 mg/kg.

With `COc1ccc(Cc2ccccc2)cc1`, the outcome in the data set with Mus musculus [3], with Mus musculus [5] and in the data set on Mus musculus [6] was Active. The Activity in data set [4] amounted to 50 µM. Also, the Stability result in data set [1] is “Stable”. The result with Mus musculus [7] was inactive.
